How the values were obtained:
Assay in all cases: radiometric filter-binding kinase assay, Kinase HotSpot
Settings in all cases: compound 0.5 µM; ATP 10 µM
PRKCB2 (human) = PRKCB2 (human) (UniProt P05771)
FRK (human) = FRK (human) (UniProt P42685)
BRSK1 (human) = BRSK1 (human) (UniProt Q8TDC3)
CAMK1 (human) = CAMK1 (human) (UniProt Q14012)
STK11 (human) = STK11 (human) (UniProt Q15831)
RPS6KA6 KD1 KD2 (human) = RPS6KA6 KD1 KD2 (human) (UniProt Q9UK32)
LIMK1 (human) = LIMK1 (human) (UniProt P53667)
LIMK1 (human), sequence (P53667 whole entry, looked up): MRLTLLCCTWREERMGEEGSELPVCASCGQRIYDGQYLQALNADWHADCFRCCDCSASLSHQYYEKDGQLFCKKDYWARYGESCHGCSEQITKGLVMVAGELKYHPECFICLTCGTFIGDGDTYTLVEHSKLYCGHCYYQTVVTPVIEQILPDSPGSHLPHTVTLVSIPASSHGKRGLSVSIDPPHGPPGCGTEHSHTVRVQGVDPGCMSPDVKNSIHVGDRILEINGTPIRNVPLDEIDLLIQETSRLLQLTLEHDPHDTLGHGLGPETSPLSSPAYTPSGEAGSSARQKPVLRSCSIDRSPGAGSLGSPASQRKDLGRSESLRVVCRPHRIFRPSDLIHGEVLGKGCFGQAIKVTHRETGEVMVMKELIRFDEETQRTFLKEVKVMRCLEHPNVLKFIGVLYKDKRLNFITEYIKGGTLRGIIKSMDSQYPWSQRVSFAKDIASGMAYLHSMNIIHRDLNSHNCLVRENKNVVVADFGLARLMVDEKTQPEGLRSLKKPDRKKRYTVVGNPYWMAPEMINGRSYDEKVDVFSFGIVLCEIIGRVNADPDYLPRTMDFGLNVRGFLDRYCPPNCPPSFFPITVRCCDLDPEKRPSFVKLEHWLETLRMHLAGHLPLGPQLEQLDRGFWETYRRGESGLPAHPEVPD

NEK1 (human) = NEK1 (human) (UniProt Q96PY6)
GSK3A (human) = GSK3A (human) (UniProt P49840)
KDR (human) = KDR (human) (UniProt P35968)
PRKCE (human) = PRKCE (human) (UniProt Q02156)
MAP3K2 (human) = MAP3K2 (human) (UniProt Q9Y2U5)
STK17A (human) = STK17A (human) (UniProt Q9UEE5)
PKN2 (human) = PKN2 (human) (UniProt Q16513)
PRKCH (human) = PRKCH (human) (UniProt P24723)
FGFR1 (human) = FGFR1 (human) (UniProt P11362)
FGFR1 (human), sequence (P11362 whole entry, looked up): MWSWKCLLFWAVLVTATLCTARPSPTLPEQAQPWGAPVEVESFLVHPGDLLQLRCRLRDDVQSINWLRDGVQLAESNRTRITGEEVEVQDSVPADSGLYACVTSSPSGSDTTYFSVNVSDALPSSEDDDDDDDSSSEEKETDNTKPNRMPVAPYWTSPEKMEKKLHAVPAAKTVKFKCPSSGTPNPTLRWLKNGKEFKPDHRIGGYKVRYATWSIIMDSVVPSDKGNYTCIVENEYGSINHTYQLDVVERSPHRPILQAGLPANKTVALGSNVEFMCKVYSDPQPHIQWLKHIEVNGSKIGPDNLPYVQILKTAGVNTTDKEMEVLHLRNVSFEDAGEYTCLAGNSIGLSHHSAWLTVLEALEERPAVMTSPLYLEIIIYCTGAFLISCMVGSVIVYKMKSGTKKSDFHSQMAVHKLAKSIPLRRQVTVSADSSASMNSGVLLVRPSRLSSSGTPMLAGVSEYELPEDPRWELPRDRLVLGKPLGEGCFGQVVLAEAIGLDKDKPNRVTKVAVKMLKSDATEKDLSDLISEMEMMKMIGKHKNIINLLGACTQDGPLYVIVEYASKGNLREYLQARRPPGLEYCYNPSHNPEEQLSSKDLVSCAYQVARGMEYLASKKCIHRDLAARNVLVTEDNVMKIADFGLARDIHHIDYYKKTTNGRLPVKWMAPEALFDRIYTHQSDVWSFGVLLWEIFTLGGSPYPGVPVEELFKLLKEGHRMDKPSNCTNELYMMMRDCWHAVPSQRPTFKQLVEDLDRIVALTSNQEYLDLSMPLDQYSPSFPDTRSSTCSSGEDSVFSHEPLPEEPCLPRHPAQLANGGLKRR

DYRK3 (human) = DYRK3 (human) (UniProt O43781)
CSNK1E (human) = CSNK1E (human) (UniProt P49674)
CSNK1E (human), sequence (P49674 whole entry, looked up): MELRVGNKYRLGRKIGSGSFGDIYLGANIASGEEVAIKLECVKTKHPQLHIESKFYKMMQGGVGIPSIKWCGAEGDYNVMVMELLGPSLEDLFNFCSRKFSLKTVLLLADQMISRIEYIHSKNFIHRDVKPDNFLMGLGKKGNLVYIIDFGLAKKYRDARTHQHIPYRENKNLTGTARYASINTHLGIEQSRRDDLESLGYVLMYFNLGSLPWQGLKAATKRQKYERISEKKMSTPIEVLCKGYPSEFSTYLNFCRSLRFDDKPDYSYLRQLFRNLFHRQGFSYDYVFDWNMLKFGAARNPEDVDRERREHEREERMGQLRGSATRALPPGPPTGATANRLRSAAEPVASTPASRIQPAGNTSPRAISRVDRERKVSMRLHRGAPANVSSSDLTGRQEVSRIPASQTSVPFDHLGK

NEK7 (human) = NEK7 (human) (UniProt Q8TDX7)
PRKACA (human) = PRKACA (human) (UniProt P17612)
PHKG1 (human) = PHKG1 (human) (UniProt Q16816)
PHKG1 (human), sequence (Q16816 whole entry, looked up): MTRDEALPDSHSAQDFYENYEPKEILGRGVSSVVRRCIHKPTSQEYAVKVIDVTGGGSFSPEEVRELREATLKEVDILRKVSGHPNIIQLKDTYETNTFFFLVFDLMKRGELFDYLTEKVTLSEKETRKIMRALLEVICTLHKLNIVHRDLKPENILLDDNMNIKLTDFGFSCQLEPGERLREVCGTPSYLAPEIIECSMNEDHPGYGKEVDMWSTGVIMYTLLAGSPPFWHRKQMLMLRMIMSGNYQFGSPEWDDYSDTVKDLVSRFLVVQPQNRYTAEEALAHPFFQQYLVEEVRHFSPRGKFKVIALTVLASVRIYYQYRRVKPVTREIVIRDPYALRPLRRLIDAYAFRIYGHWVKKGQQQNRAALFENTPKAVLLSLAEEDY

DMPK (human) = DMPK (human) (UniProt Q09013)
CDK5 CDK5R1 p25 (human) = CDK5 CDK5R1 p25 (human) (UniProt Q00535+Q15078)
PHKG2 (human) = PHKG2 (human) (UniProt P15735)
ADRBK1 (human) = ADRBK1 (human) (UniProt P25098)
PAK7 (human) = PAK7 (human) (UniProt Q9P286)
DYRK1A (human) = DYRK1A (human) (UniProt Q13627)
MYLK2 (human) = MYLK2 (human) (UniProt Q9H1R3)
MYLK2 (human), sequence (Q9H1R3 whole entry, looked up): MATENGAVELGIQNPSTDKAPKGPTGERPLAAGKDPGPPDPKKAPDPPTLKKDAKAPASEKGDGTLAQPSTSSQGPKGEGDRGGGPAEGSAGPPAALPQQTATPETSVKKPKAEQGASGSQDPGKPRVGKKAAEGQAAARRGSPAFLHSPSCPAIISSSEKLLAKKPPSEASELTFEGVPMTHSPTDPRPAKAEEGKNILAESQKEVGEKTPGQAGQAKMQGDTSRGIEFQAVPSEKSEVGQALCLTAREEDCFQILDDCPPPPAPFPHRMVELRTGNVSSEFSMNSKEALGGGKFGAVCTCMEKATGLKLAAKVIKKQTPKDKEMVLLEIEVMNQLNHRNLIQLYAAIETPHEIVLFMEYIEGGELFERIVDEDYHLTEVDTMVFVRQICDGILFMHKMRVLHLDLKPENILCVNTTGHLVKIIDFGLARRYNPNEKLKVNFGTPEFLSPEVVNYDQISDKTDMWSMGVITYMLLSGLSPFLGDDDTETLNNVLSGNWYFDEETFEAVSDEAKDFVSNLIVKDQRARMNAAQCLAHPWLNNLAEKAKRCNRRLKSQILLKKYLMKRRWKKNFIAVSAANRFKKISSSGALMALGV

PAK1 (human) = PAK1 (human) (UniProt Q13153)
ACVR1B (human) = ACVR1B (human) (UniProt P36896)
CLK1 (human) = CLK1 (human) (UniProt P49759)
MAPK13 (human) = MAPK13 (human) (UniProt O15264)
ERBB2 (human) = ERBB2 (human) (UniProt P04626)
CDK1 CCNA2 (human) = CDK1 CCNA2 (human) (UniProt P06493+P20248)
CDK1 CCNA2 (human), sequence (P06493 whole entry, looked up): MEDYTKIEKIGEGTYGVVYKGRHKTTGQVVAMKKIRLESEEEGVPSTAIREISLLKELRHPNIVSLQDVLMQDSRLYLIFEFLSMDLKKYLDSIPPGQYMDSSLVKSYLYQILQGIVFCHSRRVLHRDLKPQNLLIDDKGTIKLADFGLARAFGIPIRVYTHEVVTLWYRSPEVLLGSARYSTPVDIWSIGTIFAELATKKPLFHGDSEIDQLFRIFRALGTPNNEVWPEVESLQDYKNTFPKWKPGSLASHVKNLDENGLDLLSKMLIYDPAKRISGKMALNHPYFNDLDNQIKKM
CDK1 CCNA2 (human), sequence (P20248 whole entry, looked up): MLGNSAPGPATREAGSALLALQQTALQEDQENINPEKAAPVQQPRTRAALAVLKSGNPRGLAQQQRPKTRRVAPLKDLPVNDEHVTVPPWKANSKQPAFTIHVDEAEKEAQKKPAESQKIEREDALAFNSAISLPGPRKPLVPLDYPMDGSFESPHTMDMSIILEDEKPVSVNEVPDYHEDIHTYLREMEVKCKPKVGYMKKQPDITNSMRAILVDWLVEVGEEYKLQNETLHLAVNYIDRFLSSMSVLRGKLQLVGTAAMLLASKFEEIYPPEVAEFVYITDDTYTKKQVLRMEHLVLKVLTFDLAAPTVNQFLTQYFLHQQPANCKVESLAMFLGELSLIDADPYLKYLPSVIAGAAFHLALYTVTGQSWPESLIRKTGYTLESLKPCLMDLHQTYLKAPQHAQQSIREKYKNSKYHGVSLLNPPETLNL

MKNK2 (human) = MKNK2 (human) (UniProt Q9HBH9)
MKNK2 (human), sequence (Q9HBH9 whole entry, looked up): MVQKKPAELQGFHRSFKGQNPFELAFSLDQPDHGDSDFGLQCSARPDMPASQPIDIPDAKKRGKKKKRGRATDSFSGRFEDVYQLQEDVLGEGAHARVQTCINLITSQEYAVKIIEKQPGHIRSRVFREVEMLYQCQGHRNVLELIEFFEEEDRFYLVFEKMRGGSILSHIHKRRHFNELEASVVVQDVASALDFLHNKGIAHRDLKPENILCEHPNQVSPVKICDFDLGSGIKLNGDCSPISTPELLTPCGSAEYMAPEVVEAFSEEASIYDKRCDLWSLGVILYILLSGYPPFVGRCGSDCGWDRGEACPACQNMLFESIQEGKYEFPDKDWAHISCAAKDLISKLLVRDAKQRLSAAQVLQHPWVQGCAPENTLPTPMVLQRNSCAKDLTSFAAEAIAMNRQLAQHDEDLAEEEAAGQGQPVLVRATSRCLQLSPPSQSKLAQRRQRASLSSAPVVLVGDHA

INSRR (human) = INSRR (human) (UniProt P14616)
PTK2 (human) = PTK2 (human) (UniProt Q05397)
CAMKK2 (human) = CAMKK2 (human) (UniProt Q96RR4)
SRPK1 (human) = SRPK1 (human) (UniProt Q96SB4)
RPS6KA2 KD1 KD2 (human) = RPS6KA2 KD1 KD2 (human) (UniProt Q15349)
DDR2 (human) = DDR2 (human) (UniProt Q16832)
DDR2 (human), sequence (Q16832 whole entry, looked up): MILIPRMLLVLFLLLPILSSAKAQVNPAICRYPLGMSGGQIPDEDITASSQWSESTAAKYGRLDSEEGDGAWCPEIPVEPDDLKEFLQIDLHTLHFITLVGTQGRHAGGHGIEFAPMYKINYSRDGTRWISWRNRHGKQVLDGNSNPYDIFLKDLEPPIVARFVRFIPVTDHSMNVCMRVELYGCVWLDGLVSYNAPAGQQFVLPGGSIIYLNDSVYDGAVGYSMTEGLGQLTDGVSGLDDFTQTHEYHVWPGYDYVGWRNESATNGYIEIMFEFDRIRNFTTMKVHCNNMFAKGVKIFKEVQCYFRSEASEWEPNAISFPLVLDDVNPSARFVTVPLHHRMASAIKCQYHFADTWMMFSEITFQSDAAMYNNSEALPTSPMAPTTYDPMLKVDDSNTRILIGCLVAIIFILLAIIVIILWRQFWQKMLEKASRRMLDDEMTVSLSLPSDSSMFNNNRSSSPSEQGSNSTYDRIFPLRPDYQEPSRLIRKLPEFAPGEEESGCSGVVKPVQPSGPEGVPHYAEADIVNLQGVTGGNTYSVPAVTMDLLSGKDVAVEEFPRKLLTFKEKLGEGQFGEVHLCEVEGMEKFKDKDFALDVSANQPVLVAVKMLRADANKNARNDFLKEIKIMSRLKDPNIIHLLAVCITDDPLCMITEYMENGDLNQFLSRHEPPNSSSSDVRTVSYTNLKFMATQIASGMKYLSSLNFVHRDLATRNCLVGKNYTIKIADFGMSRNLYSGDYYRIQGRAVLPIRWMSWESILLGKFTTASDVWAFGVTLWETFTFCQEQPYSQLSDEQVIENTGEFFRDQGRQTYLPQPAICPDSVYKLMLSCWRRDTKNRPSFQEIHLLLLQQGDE

PTK6 (human) = PTK6 (human) (UniProt Q13882)

SMILES: O=C1NC(=O)C(c2cn(CCCn3ccnc3)c3ccccc23)=C1Nc1ccccc1
- residual activity (PRKCB2 (human)): 4.29%
- residual activity (FRK (human)): 107%
- residual activity (BRSK1 (human)): 95.3%
- residual activity (CAMK1 (human)): 106%
- residual activity (STK11 (human)): 89.9%
- residual activity (RPS6KA6 KD1 KD2 (human)): 2%
- residual activity (LIMK1 (human)): 83.8%
- residual activity (NEK1 (human)): 114%
- residual activity (GSK3A (human)): 10.6%
- residual activity (KDR (human)): 90.2%
- residual activity (PRKCE (human)): 12.8%
- residual activity (MAP3K2 (human)): 83.3%
- residual activity (STK17A (human)): 93.1%
- residual activity (PKN2 (human)): 76.9%
- residual activity (PRKCH (human)): 29.7%
- residual activity (FGFR1 (human)): 78.5%
- residual activity (DYRK3 (human)): 103%
- residual activity (CSNK1E (human)): 96.7%
- residual activity (NEK7 (human)): 102%
- residual activity (PRKACA (human)): 94%
- residual activity (PHKG1 (human)): 64.6%
- residual activity (DMPK (human)): 104%
- residual activity (CDK5 CDK5R1 p25 (human)): 86%
- residual activity (PHKG2 (human)): 107%
- residual activity (ADRBK1 (human)): 97.1%
- residual activity (PAK7 (human)): 94.2%
- residual activity (DYRK1A (human)): 30.8%
- residual activity (MYLK2 (human)): 95.7%
- residual activity (PAK1 (human)): 92.9%
- residual activity (ACVR1B (human)): 96.2%
- residual activity (CLK1 (human)): 43.3%
- residual activity (MAPK13 (human)): 122%
- residual activity (ERBB2 (human)): 93.6%
- residual activity (CDK1 CCNA2 (human)): 88.9%
- residual activity (MKNK2 (human)): 87.2%
- residual activity (INSRR (human)): 101%
- residual activity (PTK2 (human)): 104%
- residual activity (CAMKK2 (human)): 51.3%
- residual activity (SRPK1 (human)): 99.5%
- residual activity (RPS6KA2 KD1 KD2 (human)): 3.17%
- residual activity (DDR2 (human)): 95.6%

SMILES: N#C/C(=C(/N)Sc1ccc(N)cc1)c1ccccc1C(F)(F)F
- residual activity (PRKCB2 (human)): 103%
- residual activity (FRK (human)): 102%
- residual activity (BRSK1 (human)): 91.2%
- residual activity (CAMK1 (human)): 91.6%
- residual activity (STK11 (human)): 102%
- residual activity (RPS6KA6 KD1 KD2 (human)): 83.9%
- residual activity (LIMK1 (human)): 98.7%
- residual activity (NEK1 (human)): 99%
- residual activity (GSK3A (human)): 110%
- residual activity (KDR (human)): 94.4%
- residual activity (PRKCE (human)): 104%
- residual activity (MAP3K2 (human)): 115%
- residual activity (STK17A (human)): 82.6%
- residual activity (PTK6 (human)): 97.6%
- residual activity (PKN2 (human)): 99.9%
- residual activity (PRKCH (human)): 96.4%
- residual activity (FGFR1 (human)): 108%
- residual activity (DYRK3 (human)): 105%
- residual activity (CSNK1E (human)): 95.9%
- residual activity (NEK7 (human)): 93.9%
- residual activity (PRKACA (human)): 109%
- residual activity (PHKG1 (human)): 95.8%
- residual activity (DMPK (human)): 102%
- residual activity (CDK5 CDK5R1 p25 (human)): 93.1%
- residual activity (PHKG2 (human)): 96.1%
- residual activity (ADRBK1 (human)): 114%
- residual activity (PAK7 (human)): 104%
- residual activity (DYRK1A (human)): 93.9%
- residual activity (MYLK2 (human)): 100%
- residual activity (PAK1 (human)): 94.3%
- residual activity (ACVR1B (human)): 101%
- residual activity (MAPK13 (human)): 104%
- residual activity (ERBB2 (human)): 93%
- residual activity (CDK1 CCNA2 (human)): 91.2%
- residual activity (MKNK2 (human)): 109%
- residual activity (INSRR (human)): 88.1%
- residual activity (PTK2 (human)): 101%
- residual activity (CAMKK2 (human)): 85.5%
- residual activity (SRPK1 (human)): 96.5%
- residual activity (RPS6KA2 KD1 KD2 (human)): 99.2%
- residual activity (DDR2 (human)): 102%

SMILES: Cc1[nH]c(/C=C2\C(=O)Nc3ccc(S(=O)(=O)N(C)c4cccc(Cl)c4)cc32)c(C)c1C(=O)N1CCN(C)CC1
- residual activity (PRKCB2 (human)): 99.1%
- residual activity (FRK (human)): 95.4%
- residual activity (BRSK1 (human)): 101%
- residual activity (CAMK1 (human)): 95.8%
- residual activity (STK11 (human)): 89.9%
- residual activity (RPS6KA6 KD1 KD2 (human)): 67.8%
- residual activity (LIMK1 (human)): 87.9%
- residual activity (NEK1 (human)): 23.5%
- residual activity (GSK3A (human)): 98.4%
- residual activity (KDR (human)): 79.4%
- residual activity (PRKCE (human)): 99.1%
- residual activity (MAP3K2 (human)): 68.5%
- residual activity (STK17A (human)): 97%
- residual activity (PTK6 (human)): 91.3%
- residual activity (PKN2 (human)): 85.4%
- residual activity (PRKCH (human)): 88.7%
- residual activity (FGFR1 (human)): 80%
- residual activity (CSNK1E (human)): 76.1%
- residual activity (NEK7 (human)): 90.3%
- residual activity (PRKACA (human)): 100%
- residual activity (PHKG1 (human)): 45.2%
- residual activity (DMPK (human)): 113%
- residual activity (CDK5 CDK5R1 p25 (human)): 82%
- residual activity (PHKG2 (human)): 96%
- residual activity (ADRBK1 (human)): 105%
- residual activity (PAK7 (human)): 97.1%
- residual activity (DYRK1A (human)): 94.1%
- residual activity (MYLK2 (human)): 73.8%
- residual activity (PAK1 (human)): 87.7%
- residual activity (ACVR1B (human)): 102%
- residual activity (MAPK13 (human)): 100%
- residual activity (ERBB2 (human)): 91.5%
- residual activity (CDK1 CCNA2 (human)): 88.7%
- residual activity (MKNK2 (human)): 106%
- residual activity (INSRR (human)): 93%
- residual activity (PTK2 (human)): 96.8%
- residual activity (CAMKK2 (human)): 75.2%
- residual activity (SRPK1 (human)): 77.3%
- residual activity (RPS6KA2 KD1 KD2 (human)): 75.4%
- residual activity (DDR2 (human)): 105%

SMILES: c1ccc(-c2n[nH]c3c2oc2ccccc23)cc1
- residual activity (PRKCB2 (human)): 113%
- residual activity (FRK (human)): 89.9%
- residual activity (BRSK1 (human)): 92.4%
- residual activity (CAMK1 (human)): 85.2%
- residual activity (STK11 (human)): 107%
- residual activity (RPS6KA6 KD1 KD2 (human)): 107%
- residual activity (LIMK1 (human)): 71.2%
- residual activity (NEK1 (human)): 95.2%
- residual activity (GSK3A (human)): 91.4%
- residual activity (KDR (human)): 107%
- residual activity (PRKCE (human)): 86%
- residual activity (MAP3K2 (human)): 85.9%
- residual activity (STK17A (human)): 84.4%
- residual activity (PKN2 (human)): 97.5%
- residual activity (PRKCH (human)): 80.9%
- residual activity (FGFR1 (human)): 85.9%
- residual activity (DYRK3 (human)): 93%
- residual activity (CSNK1E (human)): 91.8%
- residual activity (NEK7 (human)): 105%
- residual activity (PRKACA (human)): 97.5%
- residual activity (PHKG1 (human)): 91.5%
- residual activity (DMPK (human)): 99.5%
- residual activity (CDK5 CDK5R1 p25 (human)): 99%
- residual activity (PHKG2 (human)): 112%
- residual activity (ADRBK1 (human)): 104%
- residual activity (PAK7 (human)): 70.9%
- residual activity (DYRK1A (human)): 114%
- residual activity (MYLK2 (human)): 66.6%
- residual activity (PAK1 (human)): 94.9%
- residual activity (ACVR1B (human)): 96.6%
- residual activity (CLK1 (human)): 84%
- residual activity (MAPK13 (human)): 109%
- residual activity (ERBB2 (human)): 104%
- residual activity (CDK1 CCNA2 (human)): 94.1%
- residual activity (MKNK2 (human)): 70%
- residual activity (INSRR (human)): 104%
- residual activity (PTK2 (human)): 94.7%
- residual activity (CAMKK2 (human)): 87.5%
- residual activity (SRPK1 (human)): 113%
- residual activity (RPS6KA2 KD1 KD2 (human)): 77.5%
- residual activity (DDR2 (human)): 96%

From the kinase profiling compilation of Christmann-Franck et al. (2016)
